Values joined by “and” are separate entries in the source; they are usually repeats but may differ in a detail not shown here. Equal values may be shown once.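 Assay format: 96-well plates, 48-hour exposure. GI50 is the concentration that inhibits growth by half.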 Active and inactive are the calls of the source. Rule as the data show it: active = GI50 up to about 1.1 µM and inactive = higher.
What was measured:
Experiment in all cases: NCI anticancer screen, dose series, 48 h
786-0 = system: 786-0
A498 = system: A498
A549 = system: A549
ACHN = system: ACHN
BT-549 = system: BT-549
CAKI-1 = system: CAKI-1
CCRF-CEM = system: CCRF-CEM
COLO 205 = system: COLO 205
DLD-1 = system: DLD-1
DMS-114 = system: DMS-114
DMS-273 = system: DMS-273
DU-145 = system: DU-145
EKVX = system: EKVX
HCC 2998 = system: HCC 2998
HCT-116 = system: HCT-116
HCT-15 = system: HCT-15
HL-60 = system: HL-60
HOP-18 = system: HOP-18
HOP-62 = system: HOP-62
HOP-92 = system: HOP-92
HT-29 = system: HT-29
Hs-578T = system: Hs-578T
IGROV-1 = system: IGROV-1
K562 = system: K562
KM-20L2 = system: KM-20L2
KM12 = system: KM12
LOX IMVI = system: LOX IMVI
LXFL 529 = system: LXFL 529
M14 = system: M14
M19-MEL = system: M19-MEL
MCF7 = system: MCF7
MDA-MB-231 = system: MDA-MB-231
MDA-MB-435 = system: MDA-MB-435
MDA-N = system: MDA-N
MOLT-4 = system: MOLT-4
Malme-3M = system: Malme-3M
NCI-H226 = system: NCI-H226
NCI-H23 = system: NCI-H23
NCI-H460 = system: NCI-H460
NCI-H522 = system: NCI-H522
NCI/ADR-RES = system: NCI/ADR-RES
OVCAR-3 = system: OVCAR-3
OVCAR-4 = system: OVCAR-4
OVCAR-5 = system: OVCAR-5
OVCAR-8 = system: OVCAR-8
PC-3 = system: PC-3
RPMI-8226 = system: RPMI-8226
RXF 393 = system: RXF 393
RXF 631 = system: RXF 631
SF-268 = system: SF-268
SF-295 = system: SF-295
SF-539 = system: SF-539
SK-MEL-28 = system: SK-MEL-28
SK-MEL-2 = system: SK-MEL-2
SK-MEL-5 = system: SK-MEL-5
SK-OV-3 = system: SK-OV-3
SN12C = system: SN12C
SNB-19 = system: SNB-19
SNB-75 = system: SNB-75
SNB-78 = system: SNB-78
SR = system: SR
SW-620 = system: SW-620
T47D = system: T47D
TK-10 = system: TK-10
U-251 = system: U-251
UACC-257 = system: UACC-257
UACC-62 = system: UACC-62
UO-31 = system: UO-31
XF498 = system: XF498

c1ccc(CN2CCc3[nH]c4ccccc4c3C2)cc1
GI50 (786-0): 22 µM (inactive) | GI50 (A498): 26.6 µM (inactive) | GI50 (A549): 67.8 µM (inactive) | GI50 (ACHN): 33.9 µM (inactive) | GI50 (BT-549): 30.5 µM (inactive) | GI50 (CAKI-1): 36.5 µM (inactive) | GI50 (CCRF-CEM): 24.3 µM (inactive) | GI50 (COLO 205): 16.9 µM (inactive) | GI50 (DLD-1): 37.8 µM (inactive) | GI50 (DMS-114): 19.8 µM (inactive) | GI50 (DMS-273): 56.2 µM (inactive) | GI50 (DU-145): 31 µM (inactive) | GI50 (EKVX): 46.5 µM (inactive) | GI50 (HCC 2998): 15.4 µM (inactive) | GI50 (HCT-116): 19.9 µM (inactive) | GI50 (HCT-15): 25.9 µM | GI50 (HL-60): 17.6 µM (inactive) | GI50 (HOP-18): 99.8 µM (inactive) | GI50 (HOP-62): 41 µM (inactive) | GI50 (HOP-92): 18 µM (inactive) | GI50 (HT-29): 17.3 µM (inactive) | GI50 (Hs-578T): 32.5 µM (inactive) | GI50 (IGROV-1): 38.7 µM (inactive) | GI50 (K562): 19.1 µM (inactive) | GI50 (KM-20L2): 15 µM (inactive) | GI50 (KM12): 22.5 µM (inactive) | GI50 (LOX IMVI): 18.3 µM (inactive) | GI50 (LXFL 529): 22.9 µM (inactive) | GI50 (M14): 17.3 µM (inactive) | GI50 (M19-MEL): 26.5 µM (inactive) | GI50 (MCF7): 17.1 µM (inactive) | GI50 (MDA-MB-231): 26.7 µM (inactive) | GI50 (MDA-MB-435): 22.9 µM (inactive) | GI50 (MDA-N): 22.1 µM (inactive) | GI50 (MOLT-4): 22.2 µM (inactive) | GI50 (Malme-3M): 17.8 µM (inactive) | GI50 (NCI-H226): 33.4 µM (inactive) | GI50 (NCI-H23): 59.2 µM (inactive) | GI50 (NCI-H460): 16.7 µM (inactive) | GI50 (NCI-H522): 18.1 µM (inactive) | GI50 (NCI/ADR-RES): 36.1 µM (inactive) | GI50 (OVCAR-3): 33 µM (inactive) | GI50 (OVCAR-4): 34.8 µM (inactive) | GI50 (OVCAR-5): 39.9 µM (inactive) | GI50 (OVCAR-8): 46.1 µM (inactive) | GI50 (PC-3): 25.4 µM (inactive) | GI50 (RPMI-8226): 23.8 µM (inactive) | GI50 (RXF 393): 34.7 µM (inactive) | GI50 (RXF 631): 18.8 µM (inactive) | GI50 (SF-268): 43.8 µM (inactive) | GI50 (SF-295): 29.9 µM (inactive) | GI50 (SF-539): 25 µM (inactive) | GI50 (SK-MEL-28): 17.5 µM (inactive) | GI50 (SK-MEL-2): 19.9 µM (inactive) | GI50 (SK-MEL-5): 16.9 µM (inactive) | GI50 (SK-OV-3): 58.3 µM (inactive) | GI50 (SN12C): 34.3 µM (inactive) | GI50 (SNB-19): 69.8 µM (inactive) | GI50 (SNB-75): 51.6 µM (inactive) | GI50 (SNB-78): 35.6 µM (inactive) | GI50 (SR): 21.9 µM (inactive) | GI50 (SW-620): 24.8 µM (inactive) | GI50 (T47D): 14.9 µM (inactive) | GI50 (TK-10): 23.9 µM (inactive) | GI50 (U-251): 21.4 µM (inactive) | GI50 (UACC-257): 16 µM (inactive) | GI50 (UACC-62): 26.1 µM (inactive) | GI50 (UO-31): 31.8 µM (inactive) | GI50 (XF498): 24.2 µM (inactive)

CN(C)C(=S)SSC(=S)N(C)C [THIRAM]
GI50 (A498): 45.8 µM (inactive) and > 60 µM (inactive) | GI50 (BT-549): 17.2 µM (inactive) and 14.2 µM (inactive) | GI50 (DLD-1): 2.59 µM (inactive) | GI50 (DMS-114): 0.124 µM (active) | GI50 (DMS-273): 0.285 µM (active) | GI50 (DU-145): 47.1 µM (inactive) and 37.7 µM (inactive) | GI50 (HCC 2998): 16.7 µM (inactive) and 29.3 µM (inactive) | GI50 (HOP-18): > 100 µM (inactive) | GI50 (HOP-62): > 67.9 µM (inactive) | GI50 (KM-20L2): 1.64 µM (inactive) | GI50 (LXFL 529): 1.98 µM (inactive) | GI50 (M14): 17.3 µM (inactive) and 20.6 µM (inactive) | GI50 (M19-MEL): 0.581 µM (active) | GI50 (MCF7): 20.8 µM (inactive) and 17.7 µM (inactive) | GI50 (MDA-MB-231): 16.8 µM (inactive) and 20.2 µM (inactive) | GI50 (MDA-N): 19.1 µM (inactive) and 14.1 µM (inactive) | GI50 (Malme-3M): 20.2 µM (inactive) and 12.4 µM (inactive) | GI50 (NCI/ADR-RES): 17.2 µM (inactive) | GI50 (RXF 631): 42.2 µM (inactive) | GI50 (SF-295): 21 µM (inactive) and 28.6 µM (inactive) | GI50 (SK-MEL-28): 13 µM (inactive) and 23.8 µM (inactive) | GI50 (SN12C): 36.4 µM (inactive) and 24.3 µM (inactive) | GI50 (SNB-19): > 57.8 µM (inactive) and 54.6 µM (inactive) | GI50 (SNB-75): 28.1 µM (inactive) and 36 µM (inactive) | GI50 (SNB-78): > 75.5 µM (inactive) | GI50 (T47D): 26.2 µM (inactive) and 18.3 µM (inactive) | GI50 (U-251): 14.3 µM (inactive) and 17.9 µM (inactive) | GI50 (UACC-62): 3.52 µM (inactive) and 2.3 µM (inactive) | GI50 (UO-31): > 46.5 µM (inactive) and 31.9 µM (inactive) | GI50 (XF498): 4.48 µM (inactive)

c1ccc2c(c1)N=C(c1cccc3ccccc13)CC(c1ccc3c(c1)OCO3)S2 (centres undefined)
GI50 (786-0): > 100 µM (inactive) | GI50 (A498): 49 µM (inactive) | GI50 (A549): > 100 µM (inactive) | GI50 (ACHN): > 100 µM (inactive) | GI50 (CAKI-1): > 100 µM (inactive) | GI50 (CCRF-CEM): > 100 µM (inactive) | GI50 (COLO 205): > 100 µM (inactive) | GI50 (DLD-1): > 100 µM (inactive) | GI50 (DMS-273): > 100 µM (inactive) | GI50 (EKVX): > 100 µM (inactive) | GI50 (HCC 2998): > 100 µM (inactive) | GI50 (HCT-116): > 100 µM (inactive) | GI50 (HL-60): > 100 µM (inactive) | GI50 (HOP-18): > 100 µM (inactive) | GI50 (HOP-62): > 100 µM (inactive) | GI50 (HT-29): > 100 µM (inactive) | GI50 (IGROV-1): > 100 µM (inactive) | GI50 (K562): > 100 µM (inactive) | GI50 (KM-20L2): > 100 µM (inactive) | GI50 (KM12): > 100 µM (inactive) | GI50 (LOX IMVI): > 100 µM (inactive) | GI50 (LXFL 529): > 100 µM (inactive) | GI50 (M14): 25.4 µM (inactive) | GI50 (M19-MEL): > 100 µM (inactive) | GI50 (MOLT-4): > 100 µM (inactive) | GI50 (Malme-3M): 70.6 µM (inactive) | GI50 (NCI-H226): > 100 µM (inactive) | GI50 (NCI-H23): > 100 µM (inactive) | GI50 (NCI-H460): > 100 µM (inactive) | GI50 (NCI-H522): > 100 µM (inactive) | GI50 (OVCAR-3): > 100 µM (inactive) | GI50 (OVCAR-4): > 100 µM (inactive) | GI50 (OVCAR-5): > 100 µM (inactive) | GI50 (OVCAR-8): > 100 µM (inactive) | GI50 (RXF 393): > 100 µM (inactive) | GI50 (RXF 631): > 100 µM (inactive) | GI50 (SF-268): > 100 µM (inactive) | GI50 (SF-295): 53.6 µM (inactive) | GI50 (SF-539): > 100 µM (inactive) | GI50 (SK-MEL-28): > 10 µM (inactive) | GI50 (SK-MEL-2): > 100 µM (inactive) | GI50 (SK-MEL-5): > 100 µM (inactive) | GI50 (SK-OV-3): > 100 µM (inactive) | GI50 (SN12C): > 100 µM (inactive) | GI50 (SNB-19): > 100 µM (inactive) | GI50 (SNB-75): > 100 µM (inactive) | GI50 (SNB-78): > 100 µM (inactive) | GI50 (SR): > 100 µM (inactive) | GI50 (SW-620): > 100 µM (inactive) | GI50 (TK-10): > 100 µM (inactive) | GI50 (U-251): 73.3 µM (inactive) | GI50 (UACC-257): > 100 µM (inactive) | GI50 (UACC-62): > 100 µM (inactive) | GI50 (UO-31): > 100 µM (inactive) | GI50 (XF498): > 100 µM (inactive)
